From patent US8076351B2, “Camptothecin derivatives with antitumor activity” (Indena S.p.A., priority 2006, dated 2011) come the findings set out here.

≈ marks a conversion by molar mass, not a printed value. Like-named read-outs stand apart in the source and are kept apart here.

For test [1], the target named is T1, human recombinant enzyme (full length top1) (Homo sapiens, UniProt P11387).
T1 construct: the human recombinant enzyme (full length top1)
T1 sequence (P11387 1-765): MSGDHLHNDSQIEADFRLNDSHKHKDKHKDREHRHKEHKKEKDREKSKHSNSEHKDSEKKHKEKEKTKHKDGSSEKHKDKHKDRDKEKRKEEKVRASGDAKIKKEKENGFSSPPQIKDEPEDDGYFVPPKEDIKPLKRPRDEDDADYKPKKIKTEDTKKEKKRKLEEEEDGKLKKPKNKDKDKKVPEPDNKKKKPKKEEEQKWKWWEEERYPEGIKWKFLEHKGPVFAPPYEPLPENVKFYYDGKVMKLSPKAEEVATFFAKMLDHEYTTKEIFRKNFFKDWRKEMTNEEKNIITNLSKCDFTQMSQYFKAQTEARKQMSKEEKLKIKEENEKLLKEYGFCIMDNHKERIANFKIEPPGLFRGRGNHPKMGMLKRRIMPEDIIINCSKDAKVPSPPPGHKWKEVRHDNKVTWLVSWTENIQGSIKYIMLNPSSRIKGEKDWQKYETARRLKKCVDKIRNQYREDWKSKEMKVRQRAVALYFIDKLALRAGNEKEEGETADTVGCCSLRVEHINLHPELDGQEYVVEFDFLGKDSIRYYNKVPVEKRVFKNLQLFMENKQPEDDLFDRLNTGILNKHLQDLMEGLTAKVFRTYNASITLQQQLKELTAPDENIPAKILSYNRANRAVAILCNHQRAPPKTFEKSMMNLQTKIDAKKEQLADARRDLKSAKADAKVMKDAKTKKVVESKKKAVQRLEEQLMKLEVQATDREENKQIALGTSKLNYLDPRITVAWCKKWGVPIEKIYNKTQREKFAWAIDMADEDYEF
Kind of test: Topoisomerase-I-dependent DNA rupture assay, DNA damage persistence. Format: biochemical. As to conditions: 30 min incubation with 10 μM drug. On the procedure: DNA ruptures were determined using a 751-bp BamHI-EcoRI DNA SV40 purified gel (Beretta G L, Binaschi M, Zagni A N D, Capuani L, Capranico G. Tethering a type IB topoisomerase to a DNA site by enzyme fusion to a heterologous site-selective DNA-binding protein domain. Cancer Res 1999; 59:3689-97). DNA fragments were only labeled at 3′. The DNA rupture reaction (20,000 cpm/sample) was carried out in […] of 10 mM Tris-HCL (pH 7.6), 150 mM KCl, 5 mM MgCl2, 15 μg/mL BSA, 0.1 mM thiothreitol, and the human recombinant enzyme (full length top1) for 30 min at 37° C. The reactions were blocked using 0.5% SDS and 0.3 mg/mL K proteinase for 45 min. at 42° C. DNA damage persistence was tested at different times adding 0.6M NaCl after 30 min. incubation with 10 μM of the drug. After precipitation, DNA was resuspended in denaturation buffer (80% formamide, 10 mM NaOH, 0.01 M EDTA and 1 mg/mL dye) before seeding in desaturating gel (7% polyacrylamide in TBE buffer).

Test [2] concerns NCI-H460 cell line (NSCL cancer). Kind of test: Cell growth inhibition assay (cytotoxicity, cell count). Type of test: cell-based, human. As for the experimental part: The compounds of the invention were tested in a cytotoxicity assay on a wide spectrum of tumour cells. By way of example, the cytotoxicity data on the NCI-H460 cell line (NSCL cancer) concerning two compounds of formula (I) are reported, using camptothecin and the drugs Topotecan and SN-38 as references:
H460 Cells from human large cell lung tumor were cultured in RPMI-1640 medium containing 10% foetal calf serum. Cell sensitivity was determined by cell growth inhibition assay after 1 or 72 hr drug exposure. The cells in logarithmic growth were collected and seeded in duplicate in 6-wells plates. […] IC50 is defined as the concentration inhibiting by 50% cell growth compared with untreated controls growth.

Where [3] appears, read: Time 0 min after adding 0.6M NaCl.
[4] abbreviates: Time 1 min after adding 0.6M NaCl.
Where [5] appears, read: Time 5 min after adding 0.6M NaCl.
The mark [6] stands for this setting: Time 10 min after adding 0.6M NaCl.
[7] abbreviates: NCI-H460, H460 human large cell lung tumor cells, 1 or 72 hr drug exposure, counted with Coulter counter 72 hours after exposure, read-out: NCI-H460 IC50 (μg/mL) Cell count.

Consider `CC[C@@]1(O)C(=O)OCc2c1cc1n(c2=O)Cc2cc3ccccc3nc2-1` [Camptothecin], for which the “Persitence of DNA damage (%)” value in test [1] (setting [3]) is recorded as 100%; in test [1] (setting [4]), 58%; in test [1] (setting [5]), 23%; in test [1] (setting [6]), 20%. The IC50 in test [2] (setting [7]) amounted to 0.115 ± 0.0174 µg/mL (≈ 0.33 µM).

As for `CC[C@@]1(O)C(=O)OCC2=C1C=C1c3nc4ccccc4cc3C3NN=C2N13` (stereo partly drawn) [IDN 6132], the “Persitence of DNA damage (%)” value is 100% in test [1] (setting [3]), 45% in test [1] (setting [4]), 32% in test [1] (setting [5]) and 20% in test [1] (setting [6]). Also, the IC50 in test [2] (setting [7]) came to 17 ± 4.25 µg/mL (≈ 47.2 µM).

As for `CC[C@@]1(O)C(=O)OCc2c1cc1c3nc4ccccc4cc3c3nnc2n13` [IDN 6137, triazole[5,4-c]16a-deoxocamptothecin], the IC50 in test [2] (Homo sapiens, NCI-H460, read-out: NCI-H460 IC50 (μg/mL) Cell count) was 3.8 ± 1.08 µg/mL (≈ 10.6 µM).

Take `CCc1c2c(nc3ccc(O)cc13)-c1cc3c(c(=O)n1C2)COC(=O)[C@]3(O)CC` [SN38, 10-hydroxy-7-ethylcamptothecin]: the “Persitence of DNA damage (%)” value in test [1] (setting [3]) turned out to be 100%; in test [1] (setting [4]) it was 60%; in test [1] (setting [5]) it was 33%; in test [1] (setting [6]), 28%. The IC50 in test [2] (setting [7]) was 0.0865 ± 0.0049 µg/mL (≈ 0.22 µM).

In the case of `CC[C@@]1(O)C(=O)OCc2c1cc1n(c2=O)Cc2cc3c(CN(C)C)c(O)ccc3nc2-1` [Topotecan], the “Persitence of DNA damage (%)” value in test [1] (setting [3]) is listed as 100%; in test [1] (setting [4]) it was 65%; in test [1] (setting [5]) it was 20%; in test [1] (setting [6]), 10%. In addition, the IC50 in test [2] (setting [7]) was 0.63 ± 0.44 µg/mL (≈ 1.49 µM).
